Like-named read-outs stand apart in the source and are kept apart here.
Assays:
[1] = molecular target: T1, human RET kinase (Homo sapiens, UniProt P07949); assay: RET Kinase Assay (LanthaScreen TR-FRET enzymatic assay); type: biochemical; conditions: 7 nM RET, 23 μM ATP
T1 construct: purchased Carna 08-159
Procedure: Compounds were tested in a LanthaScreen™ time-resolved fluorescence energy transfer (TR-FRET) enzymatic assay from Invitrogen. The assay used human RET kinase (Carna 08-159). Test compounds were prepared and diluted in DMSO in 3-fold serial dilutions to 50× of the final testing concentrations. The compounds were then further diluted to 5× by the kinase reaction buffer (50 mM HEPES pH 7.5, 0.0015% Brij-35). The enzymatic reaction for compound testing was performed in a white 384-well polypropylene plate (Corning 3573) with a total reaction volume of 25 μl containing 7 nM RET, 3 μM peptide substrate FAM-P2 (GL Biochem 112394), and 23 μM ATP (Sigma A7699-1G). The assay started with loading RET diluted in kinase reaction buffer to wells, followed by addition of equal volume of 5× compounds for 15-min incubation at the room temperature for pre-treatment. The enzymatic reaction was initiated by addition of mixture of the substrate and ATP prepared in kinase reaction buffer. After incubation at 28° C. for one hour, 25 μl of stopper buffer (a mixture of 100 mM HEPES pH 7.5 buffer, 0.015% Brij-35, 50 mM EDTA and 0.2% of coating reagent 3 (Cliper Lifesciences)) and produce TR-FRET signals. After 30 minutes of incubation at room temperature, the plate was read in a Caliper with the following settings: Excitation 340 nm (30)/Emission1 495 nm (10)/Emission2 520 nm (25). The TR-FRET values were dimensionless numbers that were calculated as the ratio of the acceptor ([…]) signal to the donor (Terbium) signal. Percent of control was calculated as the percentage of compound-treated vs 1% DMSO vehicle-treated. The dose-response curves were generated and the IC50s were calculated by nonlinear sigmoid curve fitting using XLFit.

[2] = molecular target: T2, human KDR kinase (Homo sapiens, UniProt P35968); assay: KDR Kinase Assay (LanthaScreen TR-FRET enzymatic assay); type: biochemical; conditions: 1.2 nM KDR, 92 μM ATP
T2 construct: purchased Carna 08-191
T2 sequence (P35968 20-1356): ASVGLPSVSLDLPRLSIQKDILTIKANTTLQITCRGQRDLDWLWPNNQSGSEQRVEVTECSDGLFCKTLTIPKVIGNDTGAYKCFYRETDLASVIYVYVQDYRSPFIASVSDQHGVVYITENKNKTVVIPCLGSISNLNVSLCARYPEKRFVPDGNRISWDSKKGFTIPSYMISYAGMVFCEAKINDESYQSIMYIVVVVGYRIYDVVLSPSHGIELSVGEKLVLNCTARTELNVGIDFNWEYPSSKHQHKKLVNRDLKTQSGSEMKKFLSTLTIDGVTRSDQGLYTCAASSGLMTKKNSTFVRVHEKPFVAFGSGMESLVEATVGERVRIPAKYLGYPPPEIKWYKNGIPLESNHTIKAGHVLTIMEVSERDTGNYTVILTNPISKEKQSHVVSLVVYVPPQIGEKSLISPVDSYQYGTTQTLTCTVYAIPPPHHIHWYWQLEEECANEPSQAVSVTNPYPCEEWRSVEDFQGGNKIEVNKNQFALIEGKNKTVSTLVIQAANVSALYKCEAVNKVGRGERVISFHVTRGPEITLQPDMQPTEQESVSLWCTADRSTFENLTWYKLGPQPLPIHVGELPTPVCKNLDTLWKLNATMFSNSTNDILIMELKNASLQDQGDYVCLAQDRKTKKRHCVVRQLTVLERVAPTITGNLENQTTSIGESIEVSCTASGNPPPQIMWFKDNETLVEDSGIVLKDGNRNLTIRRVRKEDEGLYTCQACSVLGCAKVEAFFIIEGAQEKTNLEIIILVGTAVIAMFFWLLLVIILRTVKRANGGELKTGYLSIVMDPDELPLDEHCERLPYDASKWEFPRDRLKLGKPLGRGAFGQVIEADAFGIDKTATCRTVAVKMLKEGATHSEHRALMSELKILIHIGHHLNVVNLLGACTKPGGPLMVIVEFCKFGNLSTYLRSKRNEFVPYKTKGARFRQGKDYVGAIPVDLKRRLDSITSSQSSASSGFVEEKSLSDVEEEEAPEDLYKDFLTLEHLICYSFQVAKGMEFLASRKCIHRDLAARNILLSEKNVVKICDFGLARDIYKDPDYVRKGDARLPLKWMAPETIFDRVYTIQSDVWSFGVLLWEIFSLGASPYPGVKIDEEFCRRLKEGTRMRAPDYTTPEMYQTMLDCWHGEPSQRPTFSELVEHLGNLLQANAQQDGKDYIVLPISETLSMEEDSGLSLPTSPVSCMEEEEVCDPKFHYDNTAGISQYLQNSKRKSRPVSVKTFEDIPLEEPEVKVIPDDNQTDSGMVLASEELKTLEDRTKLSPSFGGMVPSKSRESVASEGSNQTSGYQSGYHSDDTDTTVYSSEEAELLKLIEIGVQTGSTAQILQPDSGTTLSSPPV
Procedure: Compounds were tested in a LanthaScreen™ time-resolved fluorescence energy transfer (TR-FRET) enzymatic assay from Invitrogen. The assay used human KDR kinase (Carna 08-191). Test compounds were prepared and diluted in DMSO in 3-fold serial dilutions to 50× of the final testing concentrations. The compounds were then further diluted to 5× by the kinase reaction buffer (50 mM HEPES pH 7.5, 0.0015% Brij-35). The enzymatic reaction for compound testing was performed in a white 384-well polypropylene plate (Corning 3573) with a total reaction volume of 25 μl containing 1.2 nM KDR, 3 μM peptide substrate FAM-P22 (GL Biochem 112393), and 92 μM ATP (Sigma A7699-1G). The assay started with loading RET diluted in kinase reaction buffer to wells, followed by addition of equal volume of 5× compounds for 15-min incubation at the room temperature for pre-treatment. The enzymatic reaction was initiated by addition of mixture of the substrate and ATP prepared in kinase reaction buffer. After incubation at 28° C. for one hour, 25 μl of stopper buffer (a mixture of 100 mM HEPES pH 7.5 buffer, 0.015% Brij-35, 50 mM EDTA and 0.2% of coating reagent 3 (Cliper Lifesciences)) and produce TR-FRET signals. After 30 minutes of incubation at room temperature, the plate was read in a Caliper with the following settings: Excitation 340 nm (30)/Emission1 495 nm (10)/Emission2 520 nm (25). The TR-FRET values were dimensionless numbers that were calculated as the ratio of the acceptor ([…]) signal to the donor (Terbium) signal. Percent of control was calculated as the percentage of compound-treated vs 1% DMSO vehicle-treated. The dose-response curves were generated and the IC50s were calculated by nonlinear sigmoid curve fitting using XLFit.

[3] = system: TT cells; assay: TT Cell Proliferation Assay (WST-8, 8 days); type: cell-based; conditions: growth inhibition in TT cells, read-out: TT Cellular Activity
Procedure: Compounds disclosed herein were tested for the inhibition of RET by a cancer cell proliferation assay commonly known as MTT assay. In this assay, a complete media was prepared by adding 10% fetal bovine serum to RPMI-1640 medium (Life technology). TT cells were added to each of 88 wells of a 96 well plate at a seeding density of 6,000 cells/well/90 μL. The cells were allowed to attach to the plate by incubating at 37° C. for 24 hours. The compound was dissolved in DMSO (SIGMA). A solution of test compound was prepared in complete media by serial dilution to obtain the following concentrations: 50 μM, 15 μM, 5 μM, 1.5 μM, 0.5 μM, 0.15 μM, 0.05 μM, 0.015 μM and 0.005 μM. The test compound solution (10 μL) was added to each of 80 cell-containing wells. The final concentrations of the compound were following: 5 μM, 1.5 μM, 0.5 μM, 0.15 μM, 0.05 μM, 0.015 μM, 0.005 μM, 0.0015 μM and 0.0005 μM. The final concentration of DMSO is 0.5%. To the 8 remaining cell-containing wells, only complete media (containing 0.5% DMSO) was added to form a control group in order to measure maximal proliferation. To the remaining 8 empty wells, complete media was added to for a vehicle control group in order to measure background. The plates were incubated at 37° C. for 8 days. 10 μL WST-8 solution (DOJINDO, Cell Counting KIT-8) was added to each well. The plates were further incubated at 37° C. for 5 hours, and then read for the absorbance using a microplate reader at 450 nm. The IC50 was calculated using GraphPad Prism.

T1 sequence (P07949 29-1114): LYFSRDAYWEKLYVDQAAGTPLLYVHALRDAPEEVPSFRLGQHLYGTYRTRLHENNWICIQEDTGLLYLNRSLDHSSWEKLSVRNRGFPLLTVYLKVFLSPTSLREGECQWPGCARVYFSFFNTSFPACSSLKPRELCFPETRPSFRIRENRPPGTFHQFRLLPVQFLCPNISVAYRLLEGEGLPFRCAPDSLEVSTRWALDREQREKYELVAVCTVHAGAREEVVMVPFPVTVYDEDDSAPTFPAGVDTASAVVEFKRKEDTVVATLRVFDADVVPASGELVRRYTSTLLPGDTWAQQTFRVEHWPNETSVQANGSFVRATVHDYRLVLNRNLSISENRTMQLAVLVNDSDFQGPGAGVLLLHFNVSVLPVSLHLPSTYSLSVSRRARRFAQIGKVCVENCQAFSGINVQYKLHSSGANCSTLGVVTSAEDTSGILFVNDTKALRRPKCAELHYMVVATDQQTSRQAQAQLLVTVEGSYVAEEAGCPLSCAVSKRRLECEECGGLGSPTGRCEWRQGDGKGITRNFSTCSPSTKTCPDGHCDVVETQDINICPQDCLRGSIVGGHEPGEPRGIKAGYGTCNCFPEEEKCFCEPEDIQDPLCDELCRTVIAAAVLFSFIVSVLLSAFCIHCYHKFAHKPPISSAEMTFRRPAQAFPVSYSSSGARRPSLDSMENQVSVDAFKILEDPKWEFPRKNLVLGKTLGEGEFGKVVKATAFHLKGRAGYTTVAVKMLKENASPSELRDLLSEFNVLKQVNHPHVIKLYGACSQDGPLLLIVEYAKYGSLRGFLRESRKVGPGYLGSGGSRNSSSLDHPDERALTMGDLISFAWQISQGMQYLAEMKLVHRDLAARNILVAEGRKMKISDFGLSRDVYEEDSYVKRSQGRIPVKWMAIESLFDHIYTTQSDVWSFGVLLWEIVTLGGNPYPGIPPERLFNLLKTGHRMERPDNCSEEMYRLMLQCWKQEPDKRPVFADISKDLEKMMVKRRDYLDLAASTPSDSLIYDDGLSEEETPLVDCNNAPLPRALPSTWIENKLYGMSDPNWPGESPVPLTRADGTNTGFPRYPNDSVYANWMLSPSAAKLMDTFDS

IC50 [1] | IC50 [2] | Structure (SMILES) | IC50 ([3]; Homo sapiens, TT, 192 h) | IC50 [3]
≤ 10 nM | 50 to 100 nM | CCOc1cc(-c2ccc(N3C[C@@H]4C[C@@](C)(NC(=O)c5cc(F)ccc5Cl)C[C@@H]4C3)nc2)c2c(C#N)cnn2c1 [Example 68, 2-chloro-N-((3aR,5s,6aS)-2-(5-(3-cyano-6-ethoxypyrazolo[1,5-a]pyridin-4-yl)pyridin-2-yl)-5-methyloctahydrocyclopenta[c]pyrrol-5-yl)-5-fluorobenzamide] | 10 to 50 nM | 
≤ 10 nM | > 100 nM | CC(C)(O)COc1cc(-c2ccc(N3C[C@@H]4C[C@@](C)(NC(=O)c5ncccc5C#N)C[C@@H]4C3)nc2)c2c(C#N)cnn2c1 [Example 127, 3-cyano-N-((3aR,5s,6aS)-2-(5-(3-cyano-6-(2-hydroxy-2-methylpropoxy)pyrazolo[1,5-a]pyridin-4-yl)pyridin-2-yl)-5-methyloctahydrocyclopenta[c]pyrrol-5-yl)picolinamide] | 10 to 50 nM | 
≤ 10 nM | ≤ 10 nM | Cn1cc(-c2cc(-c3ccc(N4C5CC6CC4CC(NC(=O)c4ncccc4Cl)(C6)C5)nc3)c3c(C#N)cnn3c2)cn1 [Example 89, 3-chloro-N-((1R,3S,5s,7s)-2-(5-(3-cyano-6-(1-methyl-1H-pyrazol-4-yl)pyrazolo[1,5-a]pyridin-4-yl)pyridin-2-yl)-2-azaadamantan-5-yl)picolinamide] | ≤ 10 nM | 
50 to 100 nM | > 100 nM | CCOc1cc(-c2cnc(N3C[C@@H]4[C@H](C3)[C@H]4NC(=O)c3ncccc3Cl)cn2)c2c(C#N)cnn2c1 [Example 42, 3-chloro-N-((1R,5S,6s)-3-(5-(3-cyano-6-ethoxypyrazolo[1,5-a]pyridin-4-yl)pyrazin-2-yl)-3-azabicyclo[3.1.0]hexan-6-yl)picolinamide] | > 100 nM | 
10 to 50 nM | 50 to 100 nM | Cn1ccc(-c2cc(-c3ccc(N4C[C@@H]5C[C@@](C)(NC(=O)c6ncccc6C#N)C[C@@H]5C4)nc3)c3c(C#N)cnn3c2)n1 [Example 198, 3-cyano-N-((3aR,5s,6aS)-2-(5-(3-cyano-6-(1-methyl-1H-pyrazol-3-yl)pyrazolo[1,5-a]pyridin-4-yl)pyridin-2-yl)-5-methyloctahydrocyclopenta[c]pyrrol-5-yl)picolinamide] | 10 to 50 nM | 
≤ 10 nM | 10 to 50 nM | CC(C)(O)COc1cc(-c2ccc(N3C[C@@H]4C[C@@](C)(NS(=O)(=O)c5c(F)cccc5Cl)C[C@@H]4C3)nc2)c2c(C#N)cnn2c1 [Example 197, 2-chloro-N-((3aR,5s,6aS)-2-(5-(3-cyano-6-(2-hydroxy-2-methylpropoxy)pyrazolo[1,5-a]pyridin-4-yl)pyridin-2-yl)-5-methyloctahydrocyclopenta[c]pyrrol-5-yl)-6-fluorobenzenesulfonamide] | 10 to 50 nM | 

The remaining lines, values behind:

Structure (SMILES) | IC50 [1] | IC50 [2] | IC50 ([3]; Homo sapiens, TT, 192 h) | IC50 [3]
Cn1ccc(-c2cc(-c3ccc(N4C[C@@H]5C[C@@](C)(NC(=O)c6ncccc6F)C[C@@H]5C4)nc3)c3c(C#N)cnn3c2)n1 [Example 123, N-((3aR,5s,6aS)-2-(5-(3-cyano-6-(1-methyl-1H-pyrazol-3-yl)pyrazolo[1,5-a]pyridin-4-yl)pyridin-2-yl)-5-methyloctahydrocyclopenta[c]pyrrol-5-yl)-3-fluoropicolinamide] | ≤ 10 nM | 10 to 50 nM | ≤ 10 nM | 
Cn1cc(-c2cc(-c3ccc(N4C[C@@H]5[C@@H](CNC(=O)C(O)c6ccccc6)[C@@H]5C4)nc3)c3c(C#N)cnn3c2)cn1 (stereo partly drawn) [Example 76, N-(((1R,5S,6s)-3-(5-(3-cyano-6-(1-methyl-1H-pyrazol-4-yl)pyrazolo[1,5-a]pyridin-4-yl)pyridin-2-yl)-3-azabicyclo[3.1.0]hexan-6-yl)methyl)-2-hydroxy-2-phenylacetamide] | ≤ 10 nM | ≤ 10 nM | 10 to 50 nM | 
CCOc1cc(-c2cnc(N3C[C@H]4C[C@H](NC(=O)c5ncccc5Cl)C[C@H]4C3)cn2)c2c(C#N)cnn2c1 [Example 50, 3-chloro-N-((3aR,5s,6aS)-2-(5-(3-cyano-6-ethoxypyrazolo[1,5-a]pyridin-4-yl)pyrazin-2-yl)octahydrocyclopenta[c]pyrrol-5-yl)picolinamide] | ≤ 10 nM | > 100 nM | 10 to 50 nM | 
Cn1cc(-c2cc(-c3ccc(N4C[C@@H]5[C@@H](CNC(=O)c6ncccc6C(F)(F)F)[C@@H]5C4)nc3)c3c(C#N)cnn3c2)cn1 [Example 86, N-(((1R,5S,6s)-3-(5-(3-cyano-6-(1-methyl-1H-pyrazol-4-yl)pyrazolo[1,5-a]pyridin-4-yl)pyridin-2-yl)-3-azabicyclo[3.1.0]hexan-6-yl)methyl)-3-(trifluoromethyl)picolinamide] | ≤ 10 nM | 10 to 50 nM |  | ≤ 10 nM
CCOc1cc(-c2cnc(N3C[C@@H]4[C@H](C3)[C@@H]4NC(=O)c3ncccc3Cl)cn2)c2c(C#N)cnn2c1 [Example 41, 3-chloro-N-((1R,5S,6r)-3-(5-(3-cyano-6-ethoxypyrazolo[1,5-a]pyridin-4-yl)pyrazin-2-yl)-3-azabicyclo[3.1.0]hexan-6-yl)picolinamide] | > 100 nM | > 100 nM | > 100 nM | 
COc1ccc(C(=O)N2C[C@@H]3CN(c4ccc(-c5cc(-c6cnn(C)c6)cn6ncc(C#N)c56)cn4)C[C@@H]3C2)cn1 [Example 1, 4-(6-((3aR,6aS)-5-(6-methoxynicotinoyl)hexahydropyrrolo[3,4-c]pyrrol-2(1H)-yl)pyridin-3-yl)-6-(1-methyl-1H-pyrazol-4-yl)pyrazolo[1,5-a]pyridine-3-carbonitrile] | ≤ 10 nM | 10 to 50 nM | 10 to 50 nM | 
CCOc1cc(-c2ccc(N3C[C@@H]4C[C@@](C)(NC(=O)c5cc(F)ccc5C)C[C@@H]4C3)nc2)c2c(C#N)cnn2c1 [Example 69, N-((3aR,5s,6aS)-2-(5-(3-cyano-6-ethoxypyrazolo[1,5-a]pyridin-4-yl)pyridin-2-yl)-5-methyloctahydrocyclopenta[c]pyrrol-5-yl)-5-fluoro-2-methylbenzamide] | ≤ 10 nM | > 100 nM | ≤ 10 nM | 

— patent US20220220128A1, “HETEROCYCLIC COMPOUNDS AS KINASE INHIBITORS, COMPOSITIONS COMPRISING THE HETEROCYCLIC COMPOUND, AND METHODS OF USE THEREOF” (JS Innopharm (Shanghai) Ltd, priority 2019, published 2022)
